In US10004701B2, “Methods and compositions for treating infection” (UNIVERSITY OF ROCHESTER, priority 2012, dated 2018):
Where a name gives a salt, the structure may show the parent alone. Read-outs that look alike come from different tables or passages of the source.

Legend:
Experiment in all cases: AK assay 384-well format, Prestwick library screening
K. pneumoniae = type: cell-based, Klebsiella pneumoniae; settings: 50 μM final drug concentration; for fold induction at 50 µM: Klebsiella pneumoniae, 3 h
E. cloacae = type: cell-based, Enterobacter cloacae; settings: 50 μM final drug concentration; for fold induction at 50 µM: Enterobacter cloacae, 3 h
E. coli = type: cell-based, Escherichia coli; settings: 50 μM final drug concentration; for fold induction at 50 µM: Escherichia coli, 3 h
[1] = tested on: S. aureus strain USA300-0114; type: cell-based, Staphylococcus aureus; settings: 50 μM final drug concentration; for fold induction at 50 µM: Staphylococcus aureus, USA300, 3 h
[2] = tested on: A. baumannii strain 98-37-09; type: cell-based, Acinetobacter baumannii; settings: 50 μM final drug concentration; for fold induction at 50 µM: Acinetobacter baumannii, 983709, 3 h
E. faecium = type: cell-based, Enterococcus faecium; settings: 50 μM final drug concentration; for fold induction at 50 µM: Enterococcus faecium, 3 h
P. aeruginosa = type: cell-based, Pseudomonas aeruginosa; settings: 50 μM final drug concentration; for fold induction at 50 µM: Pseudomonas aeruginosa, 3 h
[3] = planktonic K. pneumoniae, 384-well, cutoff for positive-scoring molecules 3-fold increase, read-out: AK-based Prestwick Library Screening Results: K. pneumoniae (increase in extracellular AK activity)
[4] = planktonic E. cloacae, 384-well, cutoff for positive-scoring molecules 3-fold increase, read-out: AK-based Prestwick Library Screening Results: E. cloacae (increase in extracellular AK activity)
[5] = planktonic E. coli, 384-well, cutoff for positive-scoring molecules 3-fold increase, read-out: AK-based Prestwick Library Screening Results: E. coli (increase in extracellular AK activity)
[6] = planktonic S. aureus, 384-well, cutoff for positive-scoring molecules 3-fold increase, read-out: AK-based Prestwick Library Screening Results: S. aureus (increase in extracellular AK activity)
[7] = planktonic A. baumannii, 384-well, cutoff for positive-scoring molecules 3-fold increase, read-out: AK-based Prestwick Library Screening Results: A. baumannii (increase in extracellular AK activity)
[8] = planktonic E. faecium, 384-well, cutoff for positive-scoring molecules 3-fold increase, read-out: AK-based Prestwick Library Screening Results: E. faecium (increase in extracellular AK activity)
[9] = planktonic P. aeruginosa, 384-well, cutoff for positive-scoring molecules 3-fold increase, read-out: AK-based Prestwick Library Screening Results: P. aeruginosa (increase in extracellular AK activity)
[10] = planktonic, cutoff for positive-scoring molecules 3-fold increase, read-out: AK-based Prestwick Library Screening Results, K. pneumoniae (fold increase in extracellular AK activity)
[11] = planktonic, cutoff for positive-scoring molecules 3-fold increase, read-out: AK-based Prestwick Library Screening Results, E. cloacae (fold increase in extracellular AK activity)
[12] = planktonic, cutoff for positive-scoring molecules 3-fold increase, read-out: AK-based Prestwick Library Screening Results, E. coli (fold increase in extracellular AK activity)
[13] = planktonic, cutoff for positive-scoring molecules 3-fold increase, read-out: AK-based Prestwick Library Screening Results, S. aureus (fold increase in extracellular AK activity)
[14] = planktonic, cutoff for positive-scoring molecules 3-fold increase, read-out: AK-based Prestwick Library Screening Results, A. baumannii (fold increase in extracellular AK activity)
[15] = planktonic, cutoff for positive-scoring molecules 3-fold increase, read-out: AK-based Prestwick Library Screening Results, E. faecium (fold increase in extracellular AK activity)
[16] = planktonic, cutoff for positive-scoring molecules 3-fold increase, read-out: AK-based Prestwick Library Screening Results, P. aeruginosa (fold increase in extracellular AK activity)

Work on `CC[N+](CC)(CC)CCOc1cccc(OCC[N+](CC)(CC)CC)c1OCC[N+](CC)(CC)CC` [Gallamine triethiodide] yielded a fold induction at 50 µM (K. pneumoniae; [3]) of 1.1, a fold induction at 50 µM (E. cloacae; [4]) of 1.5 and a fold induction at 50 µM (E. coli; [5]) of 1.3. The fold induction at 50 µM [1, 6] was 1.1, the fold induction at 50 µM [2, 7] was 1.2 and the fold induction at 50 µM (E. faecium; [8]) was 1. The fold induction at 50 µM (P. aeruginosa; [9]) was 1.
Compound `Nc1nc(O)c2ncn(COC(CO)CO)c2n1` [Ganciclovir] has a fold induction at 50 µM (K. pneumoniae; [10]) of 0.7, a fold induction at 50 µM (E. cloacae; [11]) of 1.4 and a fold induction at 50 µM (E. coli; [12]) of 0.9. It also gave a fold induction at 50 µM [1, 13] of 0.9, a fold induction at 50 µM [2, 14] of 0.8 and a fold induction at 50 µM (E. faecium; [15]) of 0.9. It also gave a fold induction at 50 µM (P. aeruginosa; [16]) of 0.9.
In the case of `C=C[C@]12CN(C)[C@@H]3[C@H]4CO[C@H](C[C@H]41)[C@]1(C(=O)Nc4ccccc41)[C@@H]32` [Gelsemine], the fold induction at 50 µM (K. pneumoniae; planktonic, […], read-out: AK-based Prestwick Library Screening Results, K. pneumoniae (fold increase in extracellular AK activity)) is reported as 0.7, the fold induction at 50 µM (E. cloacae; planktonic, […], read-out: AK-based Prestwick Library Screening Results, E. cloacae (fold increase in extracellular AK activity)) is reported as 0.9 and the fold induction at 50 µM (E. coli; planktonic, […], read-out: AK-based Prestwick Library Screening Results, E. coli (fold increase in extracellular AK activity)) is reported as 0.9. The fold induction at 50 µM ([1]; planktonic, […], read-out: AK-based Prestwick Library Screening Results, S. aureus (fold increase in extracellular AK activity)) was 0.7, the fold induction at 50 µM ([2]; planktonic, […], read-out: AK-based Prestwick Library Screening Results, A. baumannii (fold increase in extracellular AK activity)) was 0.7 and the fold induction at 50 µM (E. faecium; planktonic, […], read-out: AK-based Prestwick Library Screening Results, E. faecium (fold increase in extracellular AK activity)) was 0.9. For the same compound, the fold induction at 50 µM (P. aeruginosa; planktonic, […], read-out: AK-based Prestwick Library Screening Results, P. aeruginosa (fold increase in extracellular AK activity)) was 0.9.
With `Cc1ccc(C)c(OCCCC(C)(C)C(=O)O)c1` [Gemfibrozil] the fold induction at 50 µM (K. pneumoniae; [3]) was 0.9, the fold induction at 50 µM (E. cloacae; [4]) was 1.5 and the fold induction at 50 µM (E. coli; [5]) was 1.3. It also gave a fold induction at 50 µM [1, 6] of 0.9, a fold induction at 50 µM [2, 7] of 1.3 and a fold induction at 50 µM (E. faecium; [8]) of 1. It also gave a fold induction at 50 µM (P. aeruginosa; [9]) of 1.2.
`C=C1C[C@]23C[C@@]1(O)CC[C@H]2[C@@]12C=C[C@H](O)[C@@](C)(C(=O)O1)[C@H]2[C@@H]3C(=O)O` [Gibberellic acid] was tested, and the fold induction at 50 µM (K. pneumoniae; cutoff for positive-scoring molecules 3-fold increase, read-out: AK-based Prestwick Library Screening Results, K. pneumoniae (fold increase in extracellular AK activity)) was 0.5, the fold induction at 50 µM (E. cloacae; cutoff for positive-scoring molecules 3-fold increase, read-out: AK-based Prestwick Library Screening Results, E. cloacae (fold increase in extracellular AK activity)) was 0.4 and the fold induction at 50 µM (E. coli; cutoff for positive-scoring molecules 3-fold increase, read-out: AK-based Prestwick Library Screening Results, E. coli (fold increase in extracellular AK activity)) was 0.5. The fold induction at 50 µM ([1]; cutoff for positive-scoring molecules 3-fold increase, read-out: AK-based Prestwick Library Screening Results, S. aureus (fold increase in extracellular AK activity)) was 0.4, the fold induction at 50 µM ([2]; cutoff for positive-scoring molecules 3-fold increase, read-out: AK-based Prestwick Library Screening Results, A. baumannii (fold increase in extracellular AK activity)) was 0.4 and the fold induction at 50 µM (E. faecium; cutoff for positive-scoring molecules 3-fold increase, read-out: AK-based Prestwick Library Screening Results, E. faecium (fold increase in extracellular AK activity)) was 0.8. It also gave a fold induction at 50 µM (P. aeruginosa; cutoff for positive-scoring molecules 3-fold increase, read-out: AK-based Prestwick Library Screening Results, P. aeruginosa (fold increase in extracellular AK activity)) of 0.4.
For `C[C@@H]1C(=O)O[C@H]2C[C@@]34[C@H]5C[C@@H](C(C)(C)C)[C@]36[C@@H](OC(=O)[C@@H]6O)O[C@@]4(C(=O)O5)[C@]21O` [Ginkgolide A], the “AK-based Prestwick Library Screening Results, K. pneumoniae (increase in extracellular AK activity)” value (K. pneumoniae; planktonic K. pneumoniae, […]) was 1.0, the “AK-based Prestwick Library Screening Results, E. cloacae (increase in extracellular AK activity)” value (E. cloacae; planktonic E. cloacae, […]) was 1.2 and the “AK-based Prestwick Library Screening Results, E. coli (increase in extracellular AK activity)” value (E. coli; planktonic E. coli, […]) was 1.3. The “AK-based Prestwick Library Screening Results, S. aureus (increase in extracellular AK activity)” value ([1]; planktonic S. aureus, […]) was 1.1, the “AK-based Prestwick Library Screening Results, A. baumannii (increase in extracellular AK activity)” value ([2]; planktonic A. baumannii, […]) was 1.0 and the “AK-based Prestwick Library Screening Results, E. faecium (increase in extracellular AK activity)” value (E. faecium; planktonic E. faecium, […]) was 1.0. For the same compound, the “AK-based Prestwick Library Screening Results, P. aeruginosa (increase in extracellular AK activity)” value (P. aeruginosa; planktonic P. aeruginosa, […]) was 1.1.
`O=C(OCC(O)CO)c1ccccc1Nc1ccnc2cc(Cl)ccc12` (stereo not shown) [Glafenine hydrochloride] was tested, and the fold induction at 50 µM (K. pneumoniae; planktonic K. pneumoniae, 384-well, […], read-out: AK-based Prestwick Library Screening Results: K. pneumoniae (increase in extracellular AK activity)) was 1, the fold induction at 50 µM (E. cloacae; planktonic E. cloacae, 384-well, […], read-out: AK-based Prestwick Library Screening Results: E. cloacae (increase in extracellular AK activity)) was 1.5 and the fold induction at 50 µM (E. coli; planktonic E. coli, 384-well, […], read-out: AK-based Prestwick Library Screening Results: E. coli (increase in extracellular AK activity)) was 1.2. For the same compound, the fold induction at 50 µM ([1]; planktonic S. aureus, 384-well, […], read-out: AK-based Prestwick Library Screening Results: S. aureus (increase in extracellular AK activity)) was 1.1, the fold induction at 50 µM ([2]; planktonic A. baumannii, 384-well, […], read-out: AK-based Prestwick Library Screening Results: A. baumannii (increase in extracellular AK activity)) was 1.1 and the fold induction at 50 µM (E. faecium; planktonic E. faecium, 384-well, […], read-out: AK-based Prestwick Library Screening Results: E. faecium (increase in extracellular AK activity)) was 1.1. It also gave a fold induction at 50 µM (P. aeruginosa; planktonic P. aeruginosa, 384-well, […], read-out: AK-based Prestwick Library Screening Results: P. aeruginosa (increase in extracellular AK activity)) of 1.2.
`COc1ccc(Cl)cc1C(=O)NCCc1ccc(S(=O)(=O)NC(=O)NC2CCCCC2)cc1` [Glibenclamide] gave a fold induction at 50 µM (K. pneumoniae; [3]) of 1.1, a fold induction at 50 µM (E. cloacae; [4]) of 1.4 and a fold induction at 50 µM (E. coli; [5]) of 1.2. The fold induction at 50 µM [1, 6] was 0.9, the fold induction at 50 µM [2, 7] was 1.3 and the fold induction at 50 µM (E. faecium; [8]) was 1. The fold induction at 50 µM (P. aeruginosa; [9]) was 1.2.
`Cc1ccc(S(=O)(=O)NC(=O)NN2CC3CCCC3C2)cc1` (stereo not shown) [Gliclazide] was tested, and the fold induction at 50 µM (K. pneumoniae; planktonic, cutoff for positive 3-fold increase, read-out: AK-based Prestwick Library Screening Results, K. pneumoniae (fold increase in extracellular AK activity)) was 1.2, the fold induction at 50 µM (E. cloacae; planktonic, cutoff for positive 3-fold increase, read-out: AK-based Prestwick Library Screening Results, E. cloacae (fold increase in extracellular AK activity)) was 1.8 and the fold induction at 50 µM (E. coli; planktonic, cutoff for positive 3-fold increase, read-out: AK-based Prestwick Library Screening Results, E. coli (fold increase in extracellular AK activity)) was 1.2. For the same compound, the fold induction at 50 µM ([1]; planktonic, cutoff for positive 3-fold increase, read-out: AK-based Prestwick Library Screening Results, S. aureus (fold increase in extracellular AK activity)) was 1, the fold induction at 50 µM ([2]; planktonic, cutoff for positive 3-fold increase, read-out: AK-based Prestwick Library Screening Results, A. baumannii (fold increase in extracellular AK activity)) was 1.3 and the fold induction at 50 µM (E. faecium; planktonic, cutoff for positive 3-fold increase, read-out: AK-based Prestwick Library Screening Results, E. faecium (fold increase in extracellular AK activity)) was 1. The fold induction at 50 µM (P. aeruginosa; planktonic, cutoff for positive 3-fold increase, read-out: AK-based Prestwick Library Screening Results, P. aeruginosa (fold increase in extracellular AK activity)) was 1.2.
With `CCC1=C(C)CN(C(=O)NCCc2ccc(S(=O)(=O)NC(=O)N[C@H]3CC[C@H](C)CC3)cc2)C1=O` [Glimepiride] the fold induction at 50 µM (K. pneumoniae; [10]) was 0.7, the fold induction at 50 µM (E. cloacae; [11]) was 0.9 and the fold induction at 50 µM (E. coli; [12]) was 0.5. It also gave a fold induction at 50 µM [1, 13] of 0.5, a fold induction at 50 µM [2, 14] of 0.7 and a fold induction at 50 µM (E. faecium; [15]) of 1.4. The fold induction at 50 µM (P. aeruginosa; [16]) was 0.7.
